Paper PMC11153716 (Frontiers in Pharmacology, 2024)
Values belong to the compound of their own block, whether it stands above or below them.

Tests used:
Format in all cases: cell-based
α1β3γ2L GABAARs [1] = target: T1, α1β3γ2L GABAARs (Homo sapiens, UniProt P14867+P18507+P28472); assay: whole-cell patch clamp, potentiation of GABA-induced current
T1 construct: gene GABRA1; full-length wild-type subunits co-transfected 1:1:1 (plasmid ratio) in HEK293T cells; EGFP from a separate EF1a promoter on the GABRG2 plasmid; with Gamma-aminobutyric acid receptor subunit gamma-2
T1 sequence (P14867 28-456): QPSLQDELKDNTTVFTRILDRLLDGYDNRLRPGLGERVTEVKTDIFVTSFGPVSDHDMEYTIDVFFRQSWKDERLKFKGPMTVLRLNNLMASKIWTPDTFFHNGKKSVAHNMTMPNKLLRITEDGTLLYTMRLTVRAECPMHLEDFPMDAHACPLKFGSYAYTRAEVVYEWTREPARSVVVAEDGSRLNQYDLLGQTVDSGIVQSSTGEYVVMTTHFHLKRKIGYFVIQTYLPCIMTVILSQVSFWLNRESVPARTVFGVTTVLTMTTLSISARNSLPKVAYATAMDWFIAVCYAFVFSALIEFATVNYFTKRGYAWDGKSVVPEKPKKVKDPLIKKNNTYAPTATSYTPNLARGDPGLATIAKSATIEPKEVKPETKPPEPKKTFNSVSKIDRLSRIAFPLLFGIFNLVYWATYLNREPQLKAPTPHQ
T1 sequence (P28472 26-473): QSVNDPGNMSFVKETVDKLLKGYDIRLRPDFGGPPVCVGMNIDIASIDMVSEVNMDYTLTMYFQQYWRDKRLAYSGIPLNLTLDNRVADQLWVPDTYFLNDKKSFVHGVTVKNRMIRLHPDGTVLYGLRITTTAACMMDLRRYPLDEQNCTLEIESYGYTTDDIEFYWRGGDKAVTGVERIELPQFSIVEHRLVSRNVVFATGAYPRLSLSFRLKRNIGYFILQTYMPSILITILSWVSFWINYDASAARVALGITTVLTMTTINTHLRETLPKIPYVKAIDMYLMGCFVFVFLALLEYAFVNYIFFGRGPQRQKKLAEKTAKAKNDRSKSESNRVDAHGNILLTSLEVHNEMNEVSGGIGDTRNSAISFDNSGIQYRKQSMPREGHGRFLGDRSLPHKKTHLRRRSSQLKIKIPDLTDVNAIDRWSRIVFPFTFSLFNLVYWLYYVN
T1 sequence (P18507 40-475): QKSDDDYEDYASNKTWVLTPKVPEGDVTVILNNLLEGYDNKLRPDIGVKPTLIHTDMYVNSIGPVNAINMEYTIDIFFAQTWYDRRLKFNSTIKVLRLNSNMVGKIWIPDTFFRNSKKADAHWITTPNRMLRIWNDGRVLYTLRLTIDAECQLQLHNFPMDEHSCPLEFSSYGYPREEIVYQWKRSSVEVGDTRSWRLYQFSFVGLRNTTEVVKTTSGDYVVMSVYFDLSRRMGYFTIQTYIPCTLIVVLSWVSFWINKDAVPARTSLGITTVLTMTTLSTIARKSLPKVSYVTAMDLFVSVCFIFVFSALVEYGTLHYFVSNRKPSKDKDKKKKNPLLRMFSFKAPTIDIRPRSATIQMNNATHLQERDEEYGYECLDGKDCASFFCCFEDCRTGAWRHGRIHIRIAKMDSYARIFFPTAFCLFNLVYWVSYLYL

α1β3γ2L GABAARs [2] = target: T1, α1β3γ2L GABAARs; assay: whole-cell patch clamp, inhibition of GABA-induced current; conditions: 100 μM compound, 1 μM GABA, 15 s pre-treatment, -50 mV, pH 7.4, 22-25 °C
α1β3γ2L GABAARs [3] = target: T1, α1β3γ2L GABAARs; assay: as above; conditions: -50 mV, pH 7.4, 22-25 °C
α1β3γ2L GABAARs [4] = target: T1, α1β3γ2L GABAARs; assay: as above; conditions: -50 mV, pH 7.4, 22-25 °C; remark: listed apart in the source

SMILES: Cc1ccc([C@]2(C)CCCC2(C)C)cc1 [(+)-Cuparene]
EC50 (α1β3γ2L GABAARs [1]): 15.1 ± 5.94 µM

SMILES: COc1cc2c(cc1OC)C(=O)NCC2 [Corydaldine]
whole-cell patch clamp, inhibition of GABA-induced current (α1β3γ2L GABAARs [2]): kaempferol and corydaldine suppressed the GABA-induced current by more than half

I/I0 at 300 μM (α1β3γ2L GABAARs [3]): 0.89 ± 0.02
SMILES: O=C(O)[C@H](O)Cc1ccc(O)c(O)c1 [Danshensu]

I/I0 at 100 μM (α1β3γ2L GABAARs [4]): 0.63 ± 0.04
SMILES: O=C1c2c(O)cc(O)cc2O[C@H](c2cc(O)c(O)c(O)c2)[C@H]1O [Dihydromyricetin]

SMILES: CCOC1O[C@H](CO)[C@@H](O)[C@H](O)[C@H]1O (stereo partly shown) [Ethyl glucoside]
EC50 (α1β3γ2L GABAARs [1]): 37 ± 8.56 µM

SMILES: O=c1c(O)c(-c2ccc(O)cc2)oc2cc(O)cc(O)c12 [Kaempferol]
whole-cell patch clamp, inhibition of GABA-induced current (α1β3γ2L GABAARs [2]): kaempferol and corydaldine suppressed the GABA-induced current by more than half

EC50 (α1β3γ2L GABAARs [1]): 46.9 ± 6.33 µM
SMILES: C=C1CC/C=C(\C)CC[C@@H]2[C@@H]1CC2(C)C [β-Caryophyllene]
